Paper PMC6036174 (Frontiers in Microbiology, 2018)
Values joined by “and” are separate entries in the source; they are usually repeats but may differ in a detail not shown here. Identical values can stand only once. Like-named read-outs stand apart in the source and are kept apart here.

Legend:
MDR ATCC 49967 = system: MDR ATCC 49967; design: method as in Hoffman et al., [2013]; details: ref Hoffman et al., [2013]; cited from earlier work
[1] = system: M. tuberculosis H37Rv (ATCC 27294); test: resazurin microtiter assay, MIC against M. tuberculosis H37Rv; assay type: cell-based, Mycobacterium tuberculosis; details: Mycobacterium tuberculosis, 168 h, 7 days 37°C, 90% inhibition of growth, read-out: MIC90
[2] = A549 cell cytotoxicity (MTT); details: human, A549 lung epithelial cells
[3] = VERO cell cytotoxicity (resazurin); details: African green monkey, VERO (ATCC CCL-81) normal epithelial cells
G. mellonella larvae = test: in vivo toxicity in Galleria mellonella larvae; details: for % Mortality: 72 h post-injection
Method: G. mellonella larvae in the 6th developmental stage were used to determine the in vivo cytotoxicity of the test complexes (Kellett et al., [2011]; Desbois and Coote, [2012]; McCann et al., [2012]). Thirty healthy larvae, each weighing between 0.2 and 0.4 g and with no cuticle discolouration, were used for each experiment. Fresh solutions of the test complexes were prepared immediately prior to testing under sterile conditions. Test compounds (0.05 g) were dissolved in DMSO (1 mL) and added to sterile water (9 mL) to give a stock solution/suspension (5,000 μg/mL). Test solutions/suspensions were prepared from the corresponding stock solution using Millipore water only to dilute to the desired concentration and each compound was screened across the concentration range of 5,000–100 mg/L. Test solutions/suspensions (20 μL) were administered to the larvae by injection directly into the haemocoel through the last pro-leg. The base of the pro-leg can be opened by applying gentle pressure to the sides of the larvae and this aperture will re-seal after removal of the syringe without leaving a scar. Larvae were placed in sterile Petri dishes and incubated at 30°C for 72 h. The survival of the larvae was monitored every 24 h. Death was assessed by the lack of movement in response to stimulus together with discolouration of the cuticle. Three controls were employed in all assays. The first consisted of untouched larvae maintained at the same temperature as the test larvae. The second was larvae with the pro-leg pierced with an inoculation needle but no solution injected. The third control was larvae that were inoculated with 20 μL of sterile water.

M. tuberculosis CDC1551 = test: broth tube MIC (visible pellet) against M. tuberculosis CDC1551; assay type: cell-based, Mycobacterium tuberculosis; details: Mycobacterium tuberculosis, 336 h; M. tuberculosis CDC1551; 14 days 37°C; no visible pellet; read-out: MIC100
M. tuberculosis H37Rv = details: cited from earlier work
[4] = design: method as in Poggi et al. ([2013]); details: descriptive; ref Poggi et al. ([2013]); cited from earlier work
mammalian cancer cells = system: mammalian cancer cells; design: method as in Oliveira et al., [2004]; details: ref Oliveira et al., [2004], read-out: IC50 cytotoxicity; cited from earlier work
M. tuberculosis = system: M. tuberculosis; design: method as in Oliveira et al., [2004]; details: based on Na3[Fe(CN)5(INH)]·4H2O; ref Oliveira et al., [2004]; cited from earlier work
M. smegmatis cells = system: M. smegmatis cells; design: method as in Wei et al., [2003]; details: ref Wei et al., [2003]; cited from earlier work
[5] = M. tuberculosis H37Rv, ref Poggi et al. ([2013])
[6] = H37Rv, ref Segura et al. ([2014])

O=P([O-])([O-])OP(=O)([O-])[O-].[Co+2].[Co+2].c1cnc2c(c1)ccc1cccnc12.c1cnc2c(c1)ccc1cccnc12.c1cnc2c(c1)ccc1cccnc12.c1cnc2c(c1)ccc1cccnc12 [{[Co(phen)2]2(μ-P2O7)}]
MIC (MDR ATCC 49967): 2.41 µM

c1cnc2c(c1)ccc1cccnc12 [phen, 1,10-phenanthroline, reference compound]
MIC90 [1]: 11.2 µg/mL and 61.9 µM
IC50 at 48 h [2]: 4.3 µg/mL and 23.9 µM
IC50 at 24 h [3]: > 10 µg/mL and > 55.5 µM
% Mortality (G. mellonella larvae; 10 μg per larvae (33.33 mg/kg)): 0%
% Mortality (G. mellonella larvae; 20 μg per larvae (66.67 mg/kg)): 80%
% Mortality (G. mellonella larvae; 40 μg per larvae (133.33 mg/kg)): 80%
% Mortality (G. mellonella larvae; 100 μg per larvae (333.33 mg/kg)): 100%
larvae survived (G. mellonella larvae; highest administered concentration 0.1 mg (333 mg/kg) per larvae): all of the larvae injected at this concentration with phen died
In vivo G. mellonella tolerance order in μmol (G. mellonella larvae; rank, 1st = best tolerated, from Table 2): 5th
In vivo G. mellonella tolerance order in μmol (Normalized against no. of phens) (G. mellonella larvae; rank, normalized with respect to phen content): 4th
MIC (M. tuberculosis CDC1551): 3 µg/mL and 16.6 µM

[CoCl(INH)2(H2O)]Cl·2.5H2O
MIC (M. tuberculosis H37Rv; [5]): 0.41 µM
solubility in water [4]: only very sparingly soluble in water

[Fe(CN)5(INH)]^3−
IC50 (mammalian cancer cells): > 54 µM
MIC (M. tuberculosis): 0.43 µM

NNC(=O)c1ccncc1.O.O.O.O=S(=O)([O-])[O-].[Cu+2] [[Cu(INH)(H2O)]SO4·2H2O]
MIC (M. tuberculosis H37Rv; [5]): 2.2 µM
solubility in water [4]: only very sparingly soluble in water

O=P([O-])([O-])OP(=O)([O-])[O-].[Cu+2].[Cu+2].c1cnc2c(c1)ccc1cccnc12.c1cnc2c(c1)ccc1cccnc12 [{[Cu(phen)]2(μ-P2O7)}]
MIC (MDR ATCC 49967): 2.80 µM

NNC(=O)c1ccncc1 [INH, Isoniazid, reference compound]
MIC90 [1]: 0.44 µM and 0.06 µg/mL
IC50 at 48 h [2]: 319 µg/mL and 2.33 mM
IC50 at 24 h [3]: 333 µg/mL and 2.43 mM
MIC (M. smegmatis cells): > 30 mg/mL and > 218.76 mM
MIC (M. tuberculosis CDC1551): 0.44 µM and 0.06 µg/mL

NC(N)=S.NC(N)=S.O=S(=O)([O-])C(F)(F)F.O=S(=O)([O-])C(F)(F)F.[Ag+].[Ag+].c1cnc2c(c1)ccc1cccnc12.c1cnc2c(c1)ccc1cccnc12 [[{Ag(phen)(μ-tu)}2]X2 (X = CF3 SO3-), [{Ag(phen)(μ-tu)}2]X2]
MIC (M. tuberculosis H37Rv; [6]): 14.2 µM

NC(N)=S.NC(N)=S.O=[N+]([O-])[O-].O=[N+]([O-])[O-].[Ag+].[Ag+].c1cnc2c(c1)ccc1cccnc12.c1cnc2c(c1)ccc1cccnc12 [[{Ag(phen)(μ-tu)}2]X2 (X = NO3-), [{Ag(phen)(μ-tu)}2]X2]
MIC (M. tuberculosis H37Rv; [6]): 11.0 µM
